Among the data in patent US8283353B2, “Fused ring compound and use thereof” (Takeda Pharmaceutical Company Limited, priority 2009, dated 2012) are IC50 and activation values, retold here.

As usually defined, the IC50 is the concentration that inhibits the measured activity by half. The low end stands for higher potency, the high end for lower potency.

The target of one test is T1, human AT1 receptor (Homo sapiens, UniProt P30556).
T1 construct: expressed in transfected cells; membrane fraction
T1 sequence (P30556 1-359): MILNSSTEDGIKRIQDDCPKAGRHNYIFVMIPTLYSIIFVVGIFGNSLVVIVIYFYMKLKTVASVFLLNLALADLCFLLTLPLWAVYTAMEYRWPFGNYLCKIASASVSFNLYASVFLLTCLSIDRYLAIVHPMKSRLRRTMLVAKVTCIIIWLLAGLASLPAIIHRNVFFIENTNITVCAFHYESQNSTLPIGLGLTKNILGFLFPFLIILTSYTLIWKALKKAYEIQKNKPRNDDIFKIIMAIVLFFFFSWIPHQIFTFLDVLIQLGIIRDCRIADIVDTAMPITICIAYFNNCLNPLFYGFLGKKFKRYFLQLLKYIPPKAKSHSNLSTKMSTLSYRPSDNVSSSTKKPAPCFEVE
The test is described as follows: AT1 receptor antagonistic activity: [125I]-angiotensin II binding assay on human AT1 receptor-expressing CHO-K1 cellular membrane fraction. The settings on record: 22.5 pM [125I]-angiotensin II, 1 hr room temperature. In short, it runs like this:
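Competition binding used radiolabelled angiotensin II on stably transfected CHO-K1 membrane fractions in Tris pH 7.4/MgCl2 buffer, optionally containing 0.3 mg/mL fatty acid-free BSA, 1 hr at room temperature. Filtration onto GF/C separated bound tracer, and nonspecific binding was measured with candesartan.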

A further test has as its target T2, human PPARγ (Homo sapiens, UniProt P37231).
T2 construct: expressed in transfected cells
T2 sequence (P37231 1-477 isoform P37231-2): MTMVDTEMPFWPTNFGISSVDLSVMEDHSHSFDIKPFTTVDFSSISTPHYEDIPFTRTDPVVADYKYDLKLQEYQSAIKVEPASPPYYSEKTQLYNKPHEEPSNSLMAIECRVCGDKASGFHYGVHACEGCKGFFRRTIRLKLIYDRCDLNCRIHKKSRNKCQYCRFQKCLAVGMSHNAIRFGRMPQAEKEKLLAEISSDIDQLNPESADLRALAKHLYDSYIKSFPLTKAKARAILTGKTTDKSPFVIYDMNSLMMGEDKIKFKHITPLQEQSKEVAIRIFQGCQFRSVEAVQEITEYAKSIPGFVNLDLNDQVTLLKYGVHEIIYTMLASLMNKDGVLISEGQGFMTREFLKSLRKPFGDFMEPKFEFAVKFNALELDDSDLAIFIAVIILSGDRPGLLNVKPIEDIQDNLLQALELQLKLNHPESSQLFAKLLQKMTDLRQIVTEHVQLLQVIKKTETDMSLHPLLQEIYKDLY
T2 sequence (P19793 1-462 partner): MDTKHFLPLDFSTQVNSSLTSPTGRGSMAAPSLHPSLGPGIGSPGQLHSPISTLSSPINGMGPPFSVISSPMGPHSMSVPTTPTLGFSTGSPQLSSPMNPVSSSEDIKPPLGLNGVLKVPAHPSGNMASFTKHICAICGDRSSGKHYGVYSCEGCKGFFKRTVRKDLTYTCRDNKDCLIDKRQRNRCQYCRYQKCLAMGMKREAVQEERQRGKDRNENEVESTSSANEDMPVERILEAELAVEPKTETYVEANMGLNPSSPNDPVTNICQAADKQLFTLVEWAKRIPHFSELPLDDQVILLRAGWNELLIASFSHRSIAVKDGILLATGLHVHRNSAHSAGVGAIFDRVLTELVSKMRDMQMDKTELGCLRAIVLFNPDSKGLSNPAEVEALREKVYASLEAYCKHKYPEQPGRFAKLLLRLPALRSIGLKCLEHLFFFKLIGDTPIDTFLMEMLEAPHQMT
Kind of test: PPARγ agonistic activity: luciferase reporter assay in PPARγ:RXRα:4ERPP/CHO-K1 cells. Type of test: cell-based. The settings on record: CHO-K1, test compound 10^−6 M; luciferase activity of control compound X (1 μM) = 100%, non-administration group = 0%. In a few lines:
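CHO-K1 cells stably carrying hPPARγ/RXRα and a 4ERPP luciferase reporter, dosed with test compound for 1 day at 37 °C in Ham's F12 with 0.1% fatty acid-free BSA. Luciferase read by luminescence; activity given as % of 1 μM control compound X (100%) versus untreated (0%).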
In general terms: A reporter such as luciferase makes a cellular process visible.

Consider `CCCc1c(Cc2ccc(-c3ccccc3-c3noc(=O)[nH]3)cc2)c(=O)n([C@H]2CC[C@@H](Oc3ccc(OC)cc3)CC2)c2ncnn12` [Example 272, 4-[cis-4-(4-methoxyphenoxy)cyclohexyl]-6-{[2′-(5-oxo-4,5-dihydro-1,2,4-oxadiazol-3-yl)biphenyl-4-yl]methyl}-7-propyl[1,2,4]triazolo[1,5-a]pyrimidin-5(4H)-one], for which the concentration for half-maximal inhibition (IC50) on human AT1 receptor amounted to 2.8 nM. Besides, the activation at 1 µM at human PPARγ was 28%.

Molecule `CCCc1c(Cc2ccc(-c3ccccc3-c3noc(=O)[nH]3)cc2)c(=O)n([C@H]2CC[C@H](Oc3ccc(O)cc3)CC2)c2ncnn12` [Example 273, 4-[trans-4-(4-hydroxyphenoxy)cyclohexyl]-6-{[2′-(5-oxo-4,5-dihydro-1,2,4-oxadiazol-3-yl)biphenyl-4-yl]methyl}-7-propyl[1,2,4]triazolo[1,5-a]pyrimidin-5(4H)-one] displayed an IC50 at human AT1 receptor of 1.7 nM. On human PPARγ, this molecule showed an activation at 1 µM of 48%.

The molecule `CCCc1c(Cc2ccc(-c3ccccc3-c3noc(=O)[nH]3)cc2)c(=O)n([C@H]2CC[C@@H](Oc3ccc(O)cc3)CC2)c2ncnn12` [Example 274, 4-[cis-4-(4-hydroxyphenoxy)cyclohexyl]-6-{[2′-(5-oxo-4,5-dihydro-1,2,4-oxadiazol-3-yl)biphenyl-4-yl]methyl}-7-propyl[1,2,4]triazolo[1,5-a]pyrimidin-5(4H)-one] had a 50% inhibitory concentration (IC50) at human AT1 receptor of 2.2 nM. On human PPARγ, this molecule gave an activation at 1 µM of 42%.

For the molecule `CCCc1c(Cc2ccc(-c3ccccc3-c3noc(=O)[nH]3)cc2)c(=O)n([C@H]2CC[C@@](C)(O)CC2)c2ncnn12` [Example 275, 4-(cis-4-hydroxy-4-methylcyclohexyl)-6-{[2′-(5-oxo-4,5-dihydro-1,2,4-oxadiazol-3-yl)biphenyl-4-yl]methyl}-7-propyl[1,2,4]triazolo[1,5-a]pyrimidin-5(4H)-one], the concentration for half-maximal inhibition (IC50) on human AT1 receptor is 2.5 nM. This molecule registered an activation at 1 µM at human PPARγ of 31%.

On to `CCCc1c(Cc2ccc(-c3ccccc3-c3noc(=O)[nH]3)cc2)c(=O)n([C@H]2CC[C@@H](Oc3ccc(C(C)=O)cc3)CC2)c2ncnn12` [Example 277, 4-[cis-4-(4-acetylphenoxy)cyclohexyl]-6-{[2′-(5-oxo-4,5-dihydro-1,2,4-oxadiazol-3-yl)biphenyl-4-yl]methyl}-7-propyl[1,2,4]triazolo[1,5-a]pyrimidin-5(4H)-one], for which, on human AT1 receptor, the IC50 came to 2.2 nM. Moreover, at human PPARγ, the activation at 1 µM is 20%.

`CCCc1c(Cc2ccc(-c3ccccc3-c3noc(=O)[nH]3)cc2)c(=O)n([C@H]2CC[C@H](Oc3ccc(C(C)=O)cc3)CC2)c2ncnn12` [Example 278, 4-[trans-4-(4-acetylphenoxy)cyclohexyl]-6-{[2′-(5-oxo-4,5-dihydro-1,2,4-oxadiazol-3-yl)biphenyl-4-yl]methyl}-7-propyl[1,2,4]triazolo[1,5-a]pyrimidin-5(4H)-one] displayed an IC50 at human AT1 receptor of 2.7 nM. In addition, the activation at 1 µM on human PPARγ worked out at 22%.

`CCCc1c(Cc2ccc(-c3ccccc3-c3noc(=O)[nH]3)cc2)c(=O)n([C@H]2CC[C@H](Oc3ccc(C(C)(C)O)cc3)CC2)c2ncnn12` [Example 280, 4-{trans-4-[4-(1-hydroxy-1-methylethyl)phenoxy]cyclohexyl}-6-{[2′-(5-oxo-4,5-dihydro-1,2,4-oxadiazol-3-yl)biphenyl-4-yl]methyl}-7-propyl[1,2,4]triazolo[1,5-a]pyrimidin-5(4H)-one] returned a half-maximal inhibitory concentration (IC50) on human AT1 receptor of 1.9 nM. Also, on human PPARγ, the activation at 1 µM came out at 16%.

As for `CCCc1c(Cc2ccc(-c3ccccc3-c3noc(=O)[nH]3)cc2)c(=O)n([C@H]2CC[C@@H](Oc3ccon3)CC2)c2ncnn12` [Example 281, 4-[cis-4-(isoxazol-3-yloxy)cyclohexyl]-6-{[2′-(5-oxo-4,5-dihydro-1,2,4-oxadiazol-3-yl)biphenyl-4-yl]methyl}-7-propyl[1,2,4]triazolo[1,5-a]pyrimidin-5(4H)-one], the IC50 at human AT1 receptor is 1.8 nM. At human PPARγ, the activation at 1 µM came to 42%.

`CCCc1c(Cc2ccc(-c3ccccc3-c3noc(=O)[nH]3)cc2)c(=O)n([C@H]2CC[C@H](Oc3ccon3)CC2)c2ncnn12` [Example 282, 4-[trans-4-(isoxazol-3-yloxy)cyclohexyl]-6-{[2′-(5-oxo-4,5-dihydro-1,2,4-oxadiazol-3-yl)biphenyl-4-yl]methyl}-7-propyl[1,2,4]triazolo[1,5-a]pyrimidin-5(4H)-one] displayed an IC50 on human AT1 receptor of 2.2 nM. The activation at 1 µM at human PPARγ worked out at 53%.

Consider `C=C1COC2(CCC(n3c(=O)c(Cc4ccc(-c5ccccc5-c5noc(=O)[nH]5)cc4)c(CCC)n4ncnc34)CC2)OC1` [Example 285, 4-(3-methylidene-1,5-dioxaspiro[5.5]undec-9-yl)-6-{[2′-(5-oxo-4,5-dihydro-1,2,4-oxadiazol-3-yl)biphenyl-4-yl]methyl}-7-propyl[1,2,4]triazolo[1,5-a]pyrimidin-5(4H)-one], for which, at human AT1 receptor, the IC50 was 3.1 nM. Also, the activation at 1 µM on human PPARγ worked out at 34%.

Molecule `CCCc1c(Cc2ccc(-c3ccccc3-c3noc(=O)[nH]3)cc2)c(=O)n(C2CCC3(CC2)OCCCO3)c2ncnn12` [Example 286, 4-(1,5-dioxaspiro[5.5]undec-9-yl)-6-{[2′-(5-oxo-4,5-dihydro-1,2,4-oxadiazol-3-yl)biphenyl-4-yl]methyl}-7-propyl[1,2,4]triazolo[1,5-a]pyrimidin-5(4H)-one] returned a half-inhibitory concentration (IC50) at human AT1 receptor of 3.1 nM. At human PPARγ, this molecule yielded an activation at 1 µM of 39%.

Molecule `CCCc1c(Cc2ccc(-c3ccccc3-c3noc(=O)[nH]3)cc2)c(=O)n([C@H]2CC[C@@H](OCCO)CC2)c2nc(C)nn12` [Example 288, 4-[cis-4-(2-hydroxyethoxy)cyclohexyl]-2-methyl-6-{[2′-(5-oxo-4,5-dihydro-1,2,4-oxadiazol-3-yl)biphenyl-4-yl]methyl}-7-propyl[1,2,4]triazolo[1,5-a]pyrimidin-5(4H)-one] yielded a half-inhibitory concentration (IC50) at human AT1 receptor of 2.7 nM. This molecule also gave an activation at 1 µM on human PPARγ of 17%.

Turning to `CCCc1c(Cc2ccc(-c3ccccc3-c3noc(=O)[nH]3)cc2)c(=O)n(C2CCC3(CC2)OC(=O)C(C)(C)O3)c2ncnn12` (centres unmarked) [Example 290, 4-(2,2-dimethyl-3-oxo-1,4-dioxaspiro[4.5]dec-8-yl)-6-{[2′-(5-oxo-4,5-dihydro-1,2,4-oxadiazol-3-yl)biphenyl-4-yl]methyl}-7-propyl[1,2,4]triazolo[1,5-a]pyrimidin-5(4H)-one], the IC50 at human AT1 receptor came to 3.2 nM. The molecule also came in with an activation at 1 µM at human PPARγ of 25%.

Consider `CCCc1c(Cc2ccc(-c3ccccc3-c3noc(=O)[nH]3)cc2)c(=O)n(C2CCC3(CC2)OCCO3)c2nc(C)nn12` [Example 292, 4-(1,4-dioxaspiro[4.5]dec-8-yl)-2-methyl-6-{[2′-(5-oxo-4,5-dihydro-1,2,4-oxadiazol-3-yl)biphenyl-4-yl]methyl}-7-propyl[1,2,4]triazolo[1,5-a]pyrimidin-5(4H)-one], for which the IC50 on human AT1 receptor was 1.9 nM. This molecule also displayed an activation at 1 µM on human PPARγ of 46%.

On to `CCCc1c(Cc2ccc(-c3ccccc3-c3noc(=O)[nH]3)cc2)c(=O)n(C2CCC3(CC2)O[C@H]2COC[C@H]2O3)c2ncnn12` (some centres unmarked) [Example 293, 6-{[2′-(5-oxo-4,5-dihydro-1,2,4-oxadiazol-3-yl)biphenyl-4-yl]methyl}-7-propyl-4-(tetrahydrospiro[cyclohexane-1,2′-furo[3,4-d][1,3]dioxol]-4-yl)[1,2,4]triazolo[1,5-a]pyrimidin-5(4H)-one], for which, at human AT1 receptor, the half-inhibitory concentration (IC50) is 2.3 nM. The molecule also showed an activation at 1 µM on human PPARγ of 28%.

On to `CCCc1c(Cc2ccc(-c3ccccc3-c3noc(=O)[nH]3)cc2)c(=O)n(C2CCC3(CC2)OCC(CO)O3)c2ncnn12` (centres unmarked) [Example 294, 4-[2-(hydroxymethyl)-1,4-dioxaspiro[4.5]dec-8-yl]-6-{[2′-(5-oxo-4,5-dihydro-1,2,4-oxadiazol-3-yl)biphenyl-4-yl]methyl}-7-propyl[1,2,4]triazolo[1,5-a]pyrimidin-5(4H)-one], for which the IC50 at human AT1 receptor is 2.1 nM. In addition, the activation at 1 µM at human PPARγ was found to be 31%.
